Laboratory results reported in patent publication US9938273B2 (Plexxikon Inc., priority 2015, dated 2018).

Tests used:
[1] = tested on: MOLM-14 D835Y cells, FLT3 ITD and FLT3 D835Y; assay: Cell proliferation assay (CellTiter-Glo), MOLM-14 D835Y; type: cell-based; conditions: Homo sapiens, 72 h, 3d-Growth, GMean
Method in brief: (§1)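 Three-day growth at 37 °C, 5% CO2 under compound (1 μM top final, 1:3 dilutions, eight points, 0.2% DMSO), read as ATP luminescence by CellTiter-Glo for IC50. Cells: MOLM-14 with FLT3 ITD plus D835Y or F691L, and IL-3-deprived Ba/F3 transfected with FLT3 ITD/D835Y, 1×10^4 per well.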

[2] = molecular target: T1, BA/F3-FLT3-ITD + D835Y cells (Homo sapiens, UniProt P36888, D835Y, cells depend on it, form not given); assay: Cell proliferation assay (CellTiter-Glo), engineered BA/F3 cells; type: cell-based, murine; conditions: BaF3 FLT3 ITD/D835Y cells, 3d-Growth; read-out: BaF3_FLT3 ITD/D835Y 3d-Growth: IC50
T1 sequence (P36888 1-993 D835Y): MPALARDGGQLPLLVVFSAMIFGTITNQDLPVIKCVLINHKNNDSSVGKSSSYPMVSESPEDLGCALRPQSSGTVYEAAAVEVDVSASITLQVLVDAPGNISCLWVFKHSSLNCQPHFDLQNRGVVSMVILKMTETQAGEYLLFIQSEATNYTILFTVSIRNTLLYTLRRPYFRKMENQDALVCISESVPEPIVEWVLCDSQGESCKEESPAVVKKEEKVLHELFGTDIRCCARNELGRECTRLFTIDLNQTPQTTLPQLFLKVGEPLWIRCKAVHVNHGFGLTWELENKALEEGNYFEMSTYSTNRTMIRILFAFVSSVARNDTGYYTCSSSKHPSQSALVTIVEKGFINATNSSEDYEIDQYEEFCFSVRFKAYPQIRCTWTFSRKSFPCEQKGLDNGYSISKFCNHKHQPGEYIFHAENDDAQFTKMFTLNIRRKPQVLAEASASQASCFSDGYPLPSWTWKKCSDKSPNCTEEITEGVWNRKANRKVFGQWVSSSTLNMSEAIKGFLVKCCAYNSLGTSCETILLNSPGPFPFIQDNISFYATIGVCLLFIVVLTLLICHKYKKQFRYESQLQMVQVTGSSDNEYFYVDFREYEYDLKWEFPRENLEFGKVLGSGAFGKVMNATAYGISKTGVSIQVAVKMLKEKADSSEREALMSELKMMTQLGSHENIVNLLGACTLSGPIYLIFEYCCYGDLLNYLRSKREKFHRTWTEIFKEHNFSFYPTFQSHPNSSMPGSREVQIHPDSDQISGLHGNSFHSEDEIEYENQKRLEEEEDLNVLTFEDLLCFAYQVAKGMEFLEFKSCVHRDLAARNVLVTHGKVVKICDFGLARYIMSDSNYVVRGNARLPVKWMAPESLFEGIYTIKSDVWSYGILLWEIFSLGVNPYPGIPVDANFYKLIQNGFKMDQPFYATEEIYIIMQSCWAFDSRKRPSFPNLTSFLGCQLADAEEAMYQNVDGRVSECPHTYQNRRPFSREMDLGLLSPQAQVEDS
Method in brief: as §1

Row | IC50 [1] [µM] | GI50 [2] [µM] | SMILES
1 | 0.0001 to 10 | 0.0001 to 10 | CN[C@@H]1CCN(C(=O)c2cccc(-c3cnc4[nH]c(-c5ccccc5)cc4c3)n2)C1 [Compound P-0058, [(3R)-3-(methylamino)pyrrolidin-1-yl]-[6-(2-phenyl-1H-pyrrolo[2,3-b]pyridin-5-yl)-2-pyridyl]methanone]
2 | 0.0001 to 10 | 0.0001 to 10 | CNC1CCN(C(=O)c2cccc(-c3cnc4[nH]c(-c5ccnc(OC)c5)cc4c3)n2)C1 (stereo not shown) [Compound P-0060, [6-[2-(2-methoxy-4-pyridyl)-1H-pyrrolo[2,3-b]pyridin-5-yl]-2-pyridyl]-[3-(methylamino)pyrrolidin-1-yl]methanone]
3 | 0.0001 to 10 | 0.0001 to 10 | CNC1CCN(C(=O)c2cccc(-c3cnc4[nH]c(-c5cccc(C#N)c5)cc4c3)n2)C1 (stereo not shown) [Compound P-0062, 3-[5-[6-[3-(methylamino)pyrrolidine-1-carbonyl]-2-pyridyl]-1H-pyrrolo[2,3-b]pyridin-2-yl]benzonitrile]
4 | 0.0001 to 10 | 0.0001 to 10 | CN1CCC(NC(=O)c2cccc(-c3cnc4[nH]c(-c5ccccc5)cc4c3)n2)C1 (stereo not shown) [Compound P-0064, N-(1-methylpyrrolidin-3-yl)-6-(2-phenyl-1H-pyrrolo[2,3-b]pyridin-5-yl)pyridine-2-carboxamide]
5 | 0.0001 to 10 | 0.0001 to 10 | CNC1CCN(C(=O)c2cccc(-c3cnc4[nH]c(C5=CCC(C)(C)CC5)cc4c3)n2)C1 (stereo not shown) [Compound P-0070, [6-[2-(4,4-dimethylcyclohexen-1-yl)-1H-pyrrolo[2,3-b]pyridin-5-yl]-2-pyridyl]-[3-(methylamino)pyrrolidin-1-yl]methanone]
6 | 0.0001 to 10 | 0.0001 to 10 | NC1CCN(S(=O)(=O)c2cccc(-c3cnc4[nH]c(-c5ccccc5)cc4c3)n2)CC1 [Compound P-0073, 1-[[6-(2-phenyl-1H-pyrrolo[2,3-b]pyridin-5-yl)-2-pyridyl]sulfonyl]piperidin-4-amine]
7 | 0.0001 to 10 | 0.0001 to 10 | CC1(N)CCN(C(=O)c2cccc(-c3cnc4[nH]c(-c5ccccc5)cc4c3)n2)C1 (stereo not shown) [Compound P-0078, (3-amino-3-methyl-pyrrolidin-1-yl)-[6-(2-phenyl-1H-pyrrolo[2,3-b]pyridin-5-yl)-2-pyridyl]methanone]
8 | 0.0001 to 10 | 0.0001 to 10 | O=C(Nc1cccc(-c2cnc3[nH]c(-c4ccccc4)cc3c2)n1)C1CNC1 [Compound P-0084, N-[6-(2-phenyl-1H-pyrrolo[2,3-b]pyridin-5-yl)-2-pyridyl]azetidine-3-carboxamide]
9 | 0.0001 to 10 | 0.0001 to 10 | O=C(c1cccc(-c2cnc3[nH]c(-c4ccccc4)cc3c2)n1)N1CCC(NC2CC2)C1 (stereo not shown) [Compound P-0085, [3-(cyclopropylamino)pyrrolidin-1-yl]-[6-(2-phenyl-1H-pyrrolo[2,3-b]pyridin-5-yl)-2-pyridyl]methanone]
10 | 0.0001 to 10 | 0.0001 to 10 | NC1CCC(NS(=O)(=O)c2cccc(-c3cnc4[nH]c(-c5ccccc5)cc4c3)n2)CC1 (stereo not shown) [Compound P-0088, N-(4-aminocyclohexyl)-6-(2-phenyl-1H-pyrrolo[2,3-b]pyridin-5-yl)pyridine-2-sulfonamide]

Continued, molecule first:

Row | SMILES | IC50 [1] [µM] | GI50 [2] [µM]
11 | CNC1CCN(C(=O)c2cccc(-c3cnc4[nH]c(-c5cnn(CC(F)(F)F)c5)cc4c3)n2)C1 (stereo not shown) [Compound P-0061, [3-(methylamino)pyrrolidin-1-yl]-[6-[2-[1-(2,2,2-trifluoroethyl)pyrazol-4-yl]-1H-pyrrolo[2,3-b]pyridin-5-yl]-2-pyridyl]methanone] | 0.0001 to 10 | 0.0001 to 10
12 | CNC1CCN(S(=O)(=O)c2cccc(-c3cnc4[nH]c(-c5ccccc5)cc4c3)n2)C1 (stereo not shown) [Compound P-0063, N-methyl-1-[[6-(2-phenyl-1H-pyrrolo[2,3-b]pyridin-5-yl)-2-pyridyl]sulfonyl]pyrrolidin-3-amine] | 0.0001 to 10 | 0.0001 to 10
13 | O=S(=O)(NC1CNC1)c1cccc(-c2cnc3[nH]c(-c4ccccc4)cc3c2)n1 [Compound P-0071, N-(azetidin-3-yl)-6-(2-phenyl-1H-pyrrolo[2,3-b]pyridin-5-yl)pyridine-2-sulfonamide] | 0.0001 to 10 | 0.0001 to 10
14 | O=S(=O)(NC1CCNC1)c1cccc(-c2cnc3[nH]c(-c4ccccc4)cc3c2)n1 (stereo not shown) [Compound P-0072, 6-(2-phenyl-1H-pyrrolo[2,3-b]pyridin-5-yl)-N-pyrrolidin-3-yl-pyridine-2-sulfonamide] | 0.0001 to 10 | 0.0001 to 10
15 | CN1CC(NC(=O)c2cccc(-c3cnc4[nH]c(-c5ccccc5)cc4c3)n2)C1 [Compound P-0075, N-(1-methylazetidin-3-yl)-6-(2-phenyl-1H-pyrrolo[2,3-b]pyridin-5-yl)pyridine-2-carboxamide] | 0.0001 to 10 | 0.0001 to 10
16 | NC1(C(F)(F)F)CCN(C(=O)c2cccc(-c3cnc4[nH]c(-c5ccccc5)cc4c3)n2)C1 (stereo not shown) [Compound P-0077, [3-amino-3-(trifluoromethyl)pyrrolidin-1-yl]-[6-(2-phenyl-1H-pyrrolo[2,3-b]pyridin-5-yl)-2-pyridyl]methanone] | 0.0001 to 10 | 0.0001 to 10
17 | CNCC1CCN(C(=O)c2cccc(-c3cnc4[nH]c(-c5ccccc5)cc4c3)n2)C1 (stereo not shown) [Compound P-0079, [3-(methylaminomethyl)pyrrolidin-1-yl]-[6-(2-phenyl-1H-pyrrolo[2,3-b]pyridin-5-yl)-2-pyridyl]methanone] | 0.0001 to 10 | 0.0001 to 10
18 | O=S(=O)(NC1CCNCC1)c1cccc(-c2cnc3[nH]c(-c4ccccc4)cc3c2)n1 [Compound P-0086, 6-(2-phenyl-1H-pyrrolo[2,3-b]pyridin-5-yl)-N-(4-piperidyl)pyridine-2-sulfonamide] | 0.0001 to 10 | 0.0001 to 10
19 | O=C(c1cccc(-c2cnc3[nH]c(-c4ccccc4)cc3c2)n1)N1CC(F)(F)C1 [Compound P-0090, (3,3-difluoroazetidin-1-yl)-[6-(2-phenyl-1H-pyrrolo[2,3-b]pyridin-5-yl)-2-pyridyl]methanone] | 0.0001 to 10 | 0.0001 to 10
20 | COC1CN(C(=O)c2cccc(-c3cnc4[nH]c(-c5ccccc5)cc4c3)n2)C1 [Compound P-0091, (3-methoxyazetidin-1-yl)-[6-(2-phenyl-1H-pyrrolo[2,3-b]pyridin-5-yl)-2-pyridyl]methanone] | 0.0001 to 10 | 0.0001 to 10
